Results: patent publication EP2698385A1, “Detection of synthetic cannabinoids” (priority 2012, dated 2014)
Like-named read-outs stand apart in the source and are kept apart here.

What was measured:
Assay type in all cases: binding, sheep
[1] = tested on: Antibody to Immunogen VII; details: Cross-reactants at 100 ng/ml; Antibody to Immunogen VII
Antibody to Immunogen IV = tested on: Antibody to Immunogen IV
[2] = tested on: Antibody to Immunogen VIII
[3] = Cross-reactants at 100 ng/ml, Antibody to Immunogen IV
[4] = Cross-reactants at 100 ng/ml, Antibody to Immunogen VIII

| SMILES | %B/B0 [1] | %B/B0 (Antibody to Immunogen IV; [3]) | %B/B0 [2, 4] | further results |
| --- | --- | --- | --- | --- |
| O=C(c1cccc2ccccc12)c1c[nH]c2ccccc12 [3-(1-naphthoyl)-1H-Indole, 3-(1-naphthoyl)-1H-indole] | 80.08% | 95.55% | 90.49% | – |
| CCCCCn1cc(C(=O)c2cccc3ccccc23)c2c(O)cccc21 [JWH-018 4-hydroxyindole metabolite] | 89.96% | 20.42% | 16.72% | – |
| CCCCCn1cc(C(=O)c2cccc3ccccc23)c2cc(O)ccc21 [JWH-018 5-hydroxyindole metabolite] | 85.76% | 78.56% | 87.67% | – |
| CCCCCn1cc(C(=O)c2cccc3ccccc23)c2ccc(O)cc21 [JWH-018 6-hydroxyindole metabolite] | 68.17% | 51.00% | 89.86% | – |
| O=C(c1cccc2ccccc12)c1cn(CCCCCO)c2ccccc12 [JWH-018 N-(5-hydroxypentyl) metabolite] | 53.32% | 78.42% | 57.37% | – |
| O=C(O)CCCCn1cc(C(=O)c2cccc3ccccc23)c2ccccc21 [JWH-018 N-pentanoic acid metabolite] | 53.02% | 99.89% | 100.31% | – |
| CCCCCn1cc(C(=O)c2cccc3ccccc23)c2ccccc21 [JWH-018] | 67.66% | 6.80% | 17.66% | %B/B0 (Antibody to Immunogen IV; JWH-018 standard 1.25 ng/ml): 87%; %B/B0 (Antibody to Immunogen IV; JWH-018 standard 2.5 ng/ml): 68%; %B/B0 (Antibody to Immunogen IV; JWH-018 standard 5 ng/ml): 42%; %B/B0 (Antibody to Immunogen IV; JWH-018 standard 10 ng/ml): 26%; %B/B0 (Antibody to Immunogen IV; JWH-018 standard 20 ng/ml): 16%; %B/B0 (Antibody to Immunogen IV; JWH-018 standard 40 ng/ml): 10%; %B/B0 (Antibody to Immunogen IV; JWH-018 standard 80 ng/ml): 7%; IC50 (Antibody to Immunogen IV; Table 3b standard curve, standard concentration which produces 50% B/B0): 4.133 ng/mL; %B/B0 ([2]; JWH-018 standard 1 ng/ml): 79%; %B/B0 ([2]; JWH-018 standard 3 ng/ml): 63%; %B/B0 ([2]; JWH-018 standard 5 ng/ml): 51%; %B/B0 ([2]; JWH-018 standard 10 ng/ml): 40%; %B/B0 ([2]; JWH-018 standard 20 ng/ml): 29%; %B/B0 ([2]; JWH-018 standard 40 ng/ml): 22%; %B/B0 ([2]; JWH-018 standard 80 ng/ml): 16%; IC50 ([2]; Table 3c standard curve, standard concentration which produces 50% B/B0): 5.230 ng/mL |
| CCCCn1cc(C(=O)c2cccc3ccccc23)c2ccccc21 [JWH-073] | 58.34% | 13.63% | 25.50% | – |
| CCCCCn1cc(C(=O)c2ccc(Cl)c3ccccc23)c2ccccc21 [JWH-398] | 94.47% | 6.00% | 18.66% | – |
| O=C(c1cccc2ccccc12)c1cn(CCN2CCOCC2)c2ccccc12 [WIN 55,225 (other name JWH-200), JWH-200] | 42.85% | 77.08% | 98.81% | – |
